Reference: PMC5366925, “Novel 1, 4-dihydropyridines for L-type calcium channel as antagonists for cadmium toxicity” (Scientific Reports, 2017)
Values after ≈ are worked out from the molar mass of the structure shown.

Columns and labels:
[1] = test system: SH-SY5Y cells (containing L- and N-type Ca2+ channels); assay: Intracellular Ca2+ measurement (Fluo-4 NW), carbachol-induced increase; assay type: cell-based; details: Homo sapiens, carbachol 100 nM, mean ± SD, unit printed only in abstract, not in Table 2, read-out: Calcium overload-preventing activity (IC50), SH-SY5Y
Method: (§1) The A7r5 (rat aorta smooth muscle cells) and SH-SY5Y (human neuroblastoma cell line) were obtained from the National Centre for Cell Science, Pune, India. The cells were grown at 37.5 °C in a humidified atmosphere with 5% CO2/95% air in Dulbecco’s modified Eagle medium (DMEM), restraining 2 mM of glutamine and supplemented with 10% fetal bovine serum. Once a week the cells were passaged using 0.25% trypsin, 0.53 mM EDTA (Ethylene diamine tetra acetic acid) solution and grown in […] plastic culture flasks until confluence.
(§2) In the experiment, SH-SY5Y cells were plated in 96-well plates at a density of 30,000 cells per well and incubated for 24 h. A7r5 cells were seeded into 96-well plates at a density of 10,000 cells per well and incubated for 72 h. the intracellular [Ca^2+]i concentration changes were studied using the Fluo-4 NW Calcium Assay Kit (Invitrogen, Sweden), as per the manufacturer’s instructions. Both SH-SY5Y and A7r5 cells were loaded with […] for 45 min. Then, the cells were pre-incubated in the dark for 15 min with the tested compounds at concentrations from […]. The compounds were dissolved in distilled water. Application of carbachol (100 nM) to Fura-4 loaded SH-SY5Y cells was used to stimulate changes in the intracellular [Ca^2+]i concentration, whereas A7r5 cells were treated with 1.5 mM CaCl2 and KCl (50 mM) for 5 min to induce an increase in the [Ca^2+] ion concentration. The intracellular [Ca^2+] ion concentration was measured using the fluorescence spectrophotometer’s (Thermo Ascient, Hyderabad) settings appropriate for an excitation at 494 nm and an emission at 516 nm. Amlodipine was used as the positive control. IC50 values as mean ± SD were calculated using Graph Pad Prism 5.0 software.

[2] = test system: A7r5 cells (containing L-type Ca2+ channels); assay: Intracellular Ca2+ measurement (Fluo-4 NW), CaCl2/KCl-induced increase; assay type: cell-based, rat; details: for IC50: Rattus norvegicus, A7r5 cells, 1.5 mM CaCl2 and 50 mM KCl, mean ± SD, unit printed only in abstract, not in Table 2, read-out: Calcium overload-preventing activity (IC50), A7r5; for fold higher activity in A7r5 cells than in SH-SY5Y cells: A7r5 vs SH-SY5Y IC50
Method: as §1, §2

A7r5 cells = assay: Cadmium cytotoxicity study (LDH release); assay type: cell-based, rat; details: for fold decrease in cell lethality (ratio of LC50 vs CdCl2 alone): then CdCl2 for 4 h
Method: The A7r5 cell line was obtained from National Center for Cell Sciences, Pune, India. The cells were grown in Dulbecco’s Modified Eagles Medium (DMEM) supplemented with 5% fetal bovine serum at 37 °C in an atmosphere of 90% air/10% CO2. For determinations of cell viability, A7r5 cells were removed from stock flasks by mild digestion with trypsin-EDTA solution and the stock cultures were developed in 25 cm^2 culture flasks and all trials were done in 96 micro titer plates. After plating, the cells were allowed to grow to confluence for 7–10 days before use.
The rat aorta smooth muscle A7r5 cells received one of the four treatments following overnight incubation. The first group received CdCl2 at 1, 10, 20, 30, 40, 50 μM prepared in complete culture for 4 h incubation. The second group received pretreatment with 200 μM AD for 1 h followed by the addition of 1, 10, 20, 30, 40, 50 μM CdCl2 for 4 h incubation. The third group received pretreatment with 200 μM compound 5a for 1 h followed by the addition of 1, 10, 20, 30, 40, 50 μM CdCl2 for 4 h incubation. The fourth group received pretreatment with 200 μM compound 5a for 1 h followed by the addition of 1, 10, 20, 30, 40, 50 μM CdCl2 for 4 h incubation. The CdCl2 different concentrations used in this test were chosen based on preliminary studies to identify concentrations which ranged from producing no effects to cytolethality. A short term exposure (4 h) was chosen to evaluate the effects of metallothionein induction. The cell viability was assessed by measurement of (Lactate Dehydrogenase) LDH released into the medium. LDH release was expressed as a percent of the maximum after lysis of cells with TritonX-100.

[3] = test system: mitochondrial functioning; assay: Effect on mitochondrial functioning; details: at concentrations close to those demonstrating L-type calcium channel blocking activity

| SMILES | IC50 [1] [µg/mL] | IC50 [2] [µg/mL] | fold higher activity in A7r5 cells than in SH-SY5Y cells [2] | fold decrease in cell lethality (ratio of LC50 vs CdCl2 alone) (A7r5 cells; 200 μM for 1 h pretreatment) [fold] | effect on mitochondrial functioning [3] | loss of cell viability ablated by pretreatment (A7r5 cells; 200 μM for 1 h pretreatment, 20 μM CdCl2) [%] | effect on LDH leakage (A7r5 cells; 1 h pretreatment with 200 μM, compound alone) | CC50 (A7r5 cells; 4 h exposure, CdCl2 alone, read-out: LC50 (CdCl2 induced cell death)) [µM] |
| --- | --- | --- | --- | --- | --- | --- | --- | --- |
| CCOC(=O)NCCOCC1=C(C(=O)OCC)C(c2ccccc2Cl)C(C(=O)OC)=CN1 (centres unmarked) [3d] | 14 ± 0.39 (≈ 30 µM) | 4.25 ± 0.25 (≈ 9.1 µM) |  |  |  |  |  |  |
| CCOC(=O)C1=C(COCCNC(=O)OCC(C)C)NC=C(C(=O)OC)C1c1ccccc1Cl (centres unmarked) [3e] | 40 ± 0.43 (≈ 80.8 µM) | 8.35 ± 0.52 (≈ 16.9 µM) |  |  |  |  |  |  |
| CCOC(=O)C1=C(COCCNS(=O)(=O)c2ccc([N+](=O)[O-])cc2)NC=C(C(=O)OC)C1c1ccccc1Cl (centres unmarked) [5a] | 8 ± 0.23 (≈ 13.8 µM) | 0.18 ± 0.02 (≈ 0.31 µM) | at least 10 fold | 2.5 | did not affect mitochondrial functioning |  |  |  |
| CCOC(=O)C1=C(COCCNS(=O)(=O)c2ccc(Br)cc2)NC=C(C(=O)OC)C1c1ccccc1Cl (centres unmarked) [5b] | 20 ± 0.52 (≈ 32.6 µM) | 0.52 ± 0.48 (≈ 0.847 µM) |  |  |  |  |  |  |
| CCOC(=O)C1=C(COCCNS(=O)(=O)c2ccc(Cl)c([N+](=O)[O-])c2)NC=C(C(=O)OC)C1c1ccccc1Cl (centres unmarked) [5c] | 15 ± 0.53 (≈ 24.4 µM) | 0.43 ± 0.52 (≈ 0.7 µM) |  |  |  |  |  |  |
| CCOC(=O)C1=C(COCCNS(=O)(=O)c2ccc(F)cc2)NC=C(C(=O)OC)C1c1ccccc1Cl (centres unmarked) [5d] | 21 ± 0.49 (≈ 38 µM) | 0.59 ± 0.61 (≈ 1.07 µM) |  |  |  |  |  |  |
| CCOC(=O)C1=C(COCCNS(=O)(=O)C(F)(F)F)NC=C(C(=O)OC)C1c1ccccc1Cl (centres unmarked) [5e] | 10 ± 0.18 (≈ 19 µM) | 0.25 ± 0.63 (≈ 0.474 µM) | at least 10 fold | 2.3 | did not affect mitochondrial functioning |  |  |  |
| CCOC(=O)C1=C(COCCN)NC(C)=C(C(=O)OC)C1c1ccccc1Cl (centres unmarked) [Amlodipine, reference compound] | 11 ± 0.61 (≈ 26.9 µM) | 0.45 ± 0.52 (≈ 1.1 µM) |  | 2.0 |  | 75 | did not affect LDH leakage |  |
| [Cl][Cd][Cl] [CdCl2] |  |  |  |  |  |  |  | 30.2 ± 0.82 |
